# Measured values published in patent US12595269B2, “Morpholine-like monoamine releasers” (Solvonis Therapeutics Ireland Holdings Limited, priority 2022, dated 2026).
# Like-named read-outs stand apart in the source and are kept apart here.
# Key:
# [1] = Lipophilicity by Chromatographic Hydrophobicity Index (CHI LogD); type: physicochemical
# Experimental: Methods and Procedure: The methods employed herein comply with previously described procedures to assure data integrity and adherence to GLP regulations. Briefly, a CHI value was determined by comparing the retention time of a test compound to a linear curve based on a set of calibration compounds with known CHI values. The resultant CHI value can be further converted to a CHI Log D value using an established linear regression equation.
# Reference compounds with known CHI values, including theophylline, phenyltetrazole, benzymidazole, colchicine, phenyltheophylline, acetophenone, indole, propiophenone, butyrophenone, valerophenone, were used to create a calibration line. Test compounds (10 mM) were prepared in DMSO on the same day of the experiment, when feasible. For sample preparation, 10 μL of test solution was diluted with 190 μL of a solution of Ammonium Acetate solution (50 mM) and Acetonitrile (1:1) pH7.4, which was then mixed via shaking at room temperature for 10 minutes. Test solutions were compared with the reference compounds via HPLC-UV, as described in Example 19. The gradient was calibrated by determining the retention time of each reference compound on a reverse phase LC system at a pH of 7.4.
# The relationship of CHI with retention time is “CHI=Atr+B,” wherein A and B are the constants of a linear plot of CHI against their gradient retention times, and tr is retention time.
# The test compounds were analyzed on the same system as the test mix. The equation generated from the calibration line for the reference compounds was then used to determine the unknown CHI value for the test compound. From the CHI value, the Log D was extrapolated according to the following equation, as described in Valko et al, 2001: Log D=0.0525×CHI pH7.4-1.467. Log D represents the log of the partitioning of a chemical compound between the lipid and aqueous phases.
# [2] = Brain tissue binding (BTB) by equilibrium dialysis, rat brain homogenate; type: in vitro ADME; conditions: male, Sprague Dawley, pH 7.4
# Experimental: (§1) Methods and Procedure: This study was performed in agreement with the previously described procedures to assure data integrity and adherence to GLP standards. Plasma protein binding and blood tissue binding of test items (0.5 μM) was determined using biological samples from male Sprague Dawley (SD) rats and humans. […] Dexamethasone was used as a control for lung tissue binding. Various biological samples were spiked with test compounds according to the methods that follow.
# Preparation of brain homogenate samples: Test items were dissolved in DMSO (or an appropriate solvent) to give a 10 mM solution. Further dilutions, to obtain […] working solutions (WS), were then prepared using 50% acetonitrile in Milli Q water. These 100×WS were used to spike the brain homogenate to obtain a final concentration of 5 μM. From this initial spiking solution, control samples (n=3) referred to as T=0, were immediately extracted by protein precipitation.
# An equilibrium dialysis method was performed to determine protein binding in the various biological samples described herein. Materials were prepared and methods were in accordance with the following procedures.
# Membranes were prepared for use in the equilibrium dialysis experiment, by soaking in deionized water for at least 60 minutes. After this period, 20% of pure ethanol was added, and the membranes were left in this solution for at least 20 minutes. The membranes were then rinsed in Milli-Q water prior to use. […]
# (§2) Dialysis buffer was prepared by dissolving Na2HPO4 8.69 g, KH2PO4 1.90 g, and NaCl 4.11 g in 1 L of MilliQ water, and adjusting the pH to 7.4 with H3PO4. […] In order to control the integrity of the membrane after the dialysis process, the presence of protein was assessed in the buffer compartment. […]
# Samples were analyzed in a LC-MS/MS system using an analytical method to monitor the compound to internal standard peak area ratios as representative of the compound concentrations. Alternatively, samples were analyzed by RapidFire. […]
# [3] = Plasma protein binding by equilibrium dialysis, rat plasma; type: in vitro ADME, Sprague Dawley (SD) rats; conditions: male, Sprague Dawley, pH 7.4
# Experimental: as §1
# Preparation of plasma or blood samples: An appropriate amount of test compound was dissolved in DMSO to yield a 10 mM solution. Further dilutions, to obtain 50 μM working solutions (WS), were then prepared using 50% acetonitrile in Milli-Q water. These 100×WS were used to spike plasma or blood to obtain a final concentration of 0.5 μM. From this initial spiking solution, control samples (n=3), referred to as T=0, were immediately extracted and used to calculate the recovery of the test item.
# An equilibrium dialysis method was performed to determine protein binding in the various biological samples described herein. Materials were prepared and methods were in accordance with the following procedures. […]
# as §2
# Samples were analyzed in a LC-MS/MS system using an analytical method to monitor the compound to internal standard peak area ratios as representative of the compound concentrations. Alternatively, samples were analyzed by RapidFire.
# Protein binding in plasma, blood, brain, and lung tissue samples were determined with the following formula: Afu=Buffer/x, wherein “x” may be plasma, blood, brain, or lung, and “Afu” is the apparent fraction unbound, and the other variables refer to the analyte/internal standard ratio determined in their specific compartment (buffer, plasma, blood, brain homogenate, and lung homogenate); […]
# [4] = pH 7.4, as stated in text under Table 10, read-out: calculated Log D values
# [5] = pH 7.4, pH 7.4, HPLC-UV, read-out: Chi LogD
Compound,"chromatographic logD [1, 4]","chromatographic logD [1, 5]","fraction unbound at 5 h, 5 µM [2]","fraction unbound at 5 h, 0.5 µM [3]"
"Clc1ccc([C@]23CN[C@H](CO2)C3)cc1Cl (single isomer, unassigned) [516A]",1.15,0.75,,
"Clc1ccc([C@@]23CN[C@@H](CO2)C3)cc1Cl (single isomer, unassigned) [518A]",1.15,0.75,0.0127,0.106
"Clc1ccc(C23CNC(CO2)C3)cc1Cl (centres unmarked) [522A, 1-(3,4-dichlorophenyl)-2-oxa-5-azabicyclo[2.2.1]heptane]",1.15,0.75,0.022,0.12
"CNC(C)Cc1ccc2c(c1)OCO2 (centres unmarked) [MDMA, reference compound]",0.29,0.29,~0.4,> 0.5
